Records with an inconclusive call do not appear.

The experiment deals with HEK293T viability, CellTiter-Glo ATP luminescence, 72 h. Briefly: viability loss in HEK293 cells – cell-based, luminescence, dry powder, set 15, cytotoxicity control, dose response (AID 743470).

Consider `C=C([C@@H](O)[C@@H](C)O)[C@@H](OC)[C@]1(C)Cc2cc3cc(O[C@H]4CC(OC5CC(O)C(O)C(C)O5)C(O)C(C)O4)cc(O)c3c(O)c2C(=O)[C@H]1OC1CC(OC2CC(OC3CC(C)(O)C(O)C(C)O3)C(O)C(C)O2)C(O)C(C)O1` (stereo partly specified), for which the AC35 was 188 nM.

As to `CC1(C)CC(c2nc(-c3ccc4ccc(-c5ccccc5)nc4c3)c3c(N)nccn23)C1`, the AC35 is 4660 nM. Then `Nc1ccn([C@@H]2O[C@H](CO)[C@H](O)C2O)c(=O)n1` (stereo partly specified), with 3180 nM; and `CCc1c2c(nc3ccc(O)cc13)-c1cc3c(c(=O)n1C2)COC(=O)C3(O)CC` (stereo unspecified), with 23.9 nM.

On to `CC(C)N1c2ccccc2C(c2ccc(F)cc2)C1/C=C/C(O)CC(O)CC(=O)O` (stereo unspecified), for which the AC35 was 4910 nM.

As to `CC(C)(O)CCc1ccc(O)c2c(=O)c3c(O)c4c(cc3oc12)O[C@H]1OC=C[C@@]41O`, the AC35 was 80.8 nM.

For the origin of these results see PubChem BioAssay AID743470 (Broad Institute, 2014).
